# In patent publication US11795171B2, “Pyrrolotriazinones and imidazotriazinones as ubiquitin-specific protease 7 inhibitors” (Valo Health, Inc., priority 2014, dated 2023):
# Molecular target: USP7 (Homo sapiens (Human), UniProt Q93009)
# Experiment: USP7 Assay B (Ubitquin-Rhodamine110 Assay)
# Assay type: biochemical
# Settings: Ub-Rh110 substrate 25 nM
# Experimental: Stock compound solutions were stored at −20° C. as 10 mM in DMSO. […] Prestamped assay plates were allowed to come to room temperature on the day of the assay. For the screen, 100 nL of 2 mM was pre-dispensed for a final screening concentration of 10 μM (DMSO(fc)=0.5%). […] Unless otherwise indicated, all follow-up assays were run on triplecate plates. […] Pre-stamped with compounds were either not preincubated or preincubated with USP7 between 30 to 120 minutes prior to the addition of 10 μL of 2×Ub-Rh110 to compound plates. Plates were incubated stacked for either 23 or 45 minutes at room temperature before fluorescence was read on the Envision (Excitation at 485 nm and Emission at 535 nm; Perkin Elmer) or on the PheraSTAR (Excitation at 485 nm and Emission at 535 nm; BMG Labtech).
# Data from USP7 Assays A and B were reported as percent inhibition (inh) compared with control wells based on the following equation: % inh=1−((FLU−AveLow)/(AveHigh−AveLow)) where FLU=measured Fluorescence (See Tables 2 and 3). AveLow=average Fluorescence of no enzyme control (n=16). AveHigh=average Fluorescence of DMSO control (n=16). IC50 values were determined by curve fitting of the standard 4 parameter logistic fitting algorithm included in the Activity Base software package: IDBS XE Designer Model205. Data is fitted using the Levenburg Marquardt algorithm.
# USP7, sequence (Q93009 208-1102): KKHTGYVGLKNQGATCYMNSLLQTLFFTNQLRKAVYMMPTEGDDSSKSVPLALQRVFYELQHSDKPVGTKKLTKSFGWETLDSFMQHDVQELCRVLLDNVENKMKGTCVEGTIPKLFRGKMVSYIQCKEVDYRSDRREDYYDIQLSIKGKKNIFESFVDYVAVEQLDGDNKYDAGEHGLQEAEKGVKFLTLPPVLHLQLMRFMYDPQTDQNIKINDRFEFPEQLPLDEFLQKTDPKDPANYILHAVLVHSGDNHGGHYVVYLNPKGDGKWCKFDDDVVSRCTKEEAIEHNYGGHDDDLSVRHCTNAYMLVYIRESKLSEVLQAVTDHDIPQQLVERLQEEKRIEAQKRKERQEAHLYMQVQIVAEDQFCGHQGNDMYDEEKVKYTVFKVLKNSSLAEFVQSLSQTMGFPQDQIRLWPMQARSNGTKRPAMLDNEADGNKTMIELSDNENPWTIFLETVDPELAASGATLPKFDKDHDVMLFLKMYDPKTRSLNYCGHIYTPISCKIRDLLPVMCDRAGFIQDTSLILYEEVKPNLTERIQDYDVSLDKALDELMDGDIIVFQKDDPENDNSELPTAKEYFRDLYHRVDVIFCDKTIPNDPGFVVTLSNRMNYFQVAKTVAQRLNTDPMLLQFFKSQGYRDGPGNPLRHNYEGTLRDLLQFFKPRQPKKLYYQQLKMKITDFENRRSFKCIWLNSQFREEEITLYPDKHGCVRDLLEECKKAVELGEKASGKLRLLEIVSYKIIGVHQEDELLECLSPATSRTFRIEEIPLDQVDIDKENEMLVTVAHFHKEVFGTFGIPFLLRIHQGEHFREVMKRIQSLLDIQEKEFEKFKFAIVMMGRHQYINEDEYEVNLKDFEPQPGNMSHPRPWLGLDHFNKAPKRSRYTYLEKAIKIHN
row,Compound,IC50 [µM]
1,"CC(C)c1ccc(-c2cccc(C(=O)N3CCC(O)(Cn4cnn5cccc5c4=O)CC3)c2)cc1 [Compound I-14, 3-((4-hydroxy-1-(4′-isopropyl-[1,1′-biphenyl]-3-carbonyl)piperidin-4-yl)methyl)pyrrolo[2,1-f][1,2,4]triazin-4(3H)-one]",> 10
2,"CCNC(=O)c1ccc(-c2ccc(C(=O)N3CCC(O)(Cn4cnn5cccc5c4=O)CC3)cc2)cc1 [Compound I-41, N-ethyl-4′-(4-hydroxy-4-((4-oxopyrrolo[2,1-f][1,2,4]triazin-3(4H)-yl)methyl)piperidine-1-carbonyl)-[1,1′-biphenyl]-4-carboxamide]",> 10
3,"O=C(c1cccc(-c2ccccc2F)c1)N1CCC(O)(Cn2cnn3cccc3c2=O)CC1 [Compound I-29, 3-((1-(2′-fluoro-[1,1′-biphenyl]-3-carbonyl)-4-hydroxypiperidin-4-yl)methyl)pyrrolo[2,1-f][1,2,4]triazin-4(3H)-one]",1 to 10
4,"N#CC(Cc1ccccc1)C(=O)N1CCC(O)(Cn2cnn3cccc3c2=O)CC1 (stereo not shown) [Compound I-54, 2-benzyl-3-(4-hydroxy-4-((4-oxopyrrolo[2,1-f][1,2,4]triazin-3(4H)-yl)methyl)piperidin-1-yl)-3-oxopropanenitrile]",> 10
5,"Cn1c(-c2cccc(C(=O)N3CCC(O)(Cn4cnn5cccc5c4=O)CC3)c2)cc2ccccc21 [Compound I-25, 3-((4-hydroxy-1-(3-(1-methyl-1H-indol-2-yl)benzoyl)piperidin-4-yl)methyl)pyrrolo[2,1-f][1,2,4]triazin-4(3H)-one]",0.2 to 1
6,"Cc1ccc2c(=O)n(CC3(O)CCN(C(=O)C(C)Cc4ccccc4)CC3)cnn12 (stereo not shown) [Compound I-77, 3-((4-hydroxy-1-(2-methyl-3-phenylpropanoyl)piperidin-4-yl)methyl)-7-methylpyrrolo[2,1-f][1,2,4]triazin-4(3H)-one]",1 to 10
7,"O=C(c1cccc(-c2cccs2)c1)N1CCC(O)(Cn2cnn3cccc3c2=O)CC1 [Compound I-27, 3-((4-hydroxy-1-(3-(thiophen-2-yl)benzoyl)piperidin-4-yl)methyl)pyrrolo[2,1-f][1,2,4]triazin-4(3H)-one]",> 10
8,"O=C(Nc1ccc(F)cc1)Nc1cc2c(=O)n(CC3(O)CCN(C(=O)C4CC4)CC3)cnn2c1 [Compound I-88, 1-(3-((1-(cyclopropanecarbonyl)-4-hydroxypiperidin-4-yl)methyl)-4-oxo-3,4-dihydropyrrolo[2,1-f][1,2,4]triazin-6-yl)-3-(4-fluorophenyl)urea]",> 10
9,"CC(=O)Nc1cc2c(=O)n(CC3(O)CCN(C(=O)C[C@@H](C)c4ccccc4)CC3)cnn2c1 [Compound I-81, (R)-N-(3-((4-hydroxy-1-(3-phenylbutanoyl)piperidin-4-yl)methyl)-4-oxo-3,4-dihydropyrrolo[2,1-f][1,2,4]triazin-6-yl)acetamide]",0.2 to 1
10,"Cc1cc2c(=O)n(CC3(O)CCN(C(=O)C(C)Cc4ccccc4)CC3)cnn2c1 (stereo not shown) [Compound I-84, 3-((4-hydroxy-1-(2-methyl-3-phenylpropanoyl)piperidin-4-yl)methyl)-6-methylpyrrolo[2,1-f][1,2,4]triazin-4(3H)-one]",1 to 10
11,"Cc1nnnn1Cc1ccc(C(=O)N2CCC(O)(Cn3cnn4cccc4c3=O)CC2)cc1 [Compound I-66, 3-((4-hydroxy-1-(4-((5-methyl-1H-tetrazol-1-yl)methyl)benzoyl)piperidin-4-yl)methyl)pyrrolo[2,1-f][1,2,4]triazin-4(3H)-one]",> 10
12,"CNC(=O)Nc1cc2c(=O)n(CC3(O)CCN(C(=O)C[C@@H](C)c4ccccc4)CC3)cnn2c1 [Compound I-82, (R)-1-(3-((4-hydroxy-1-(3-phenylbutanoyl)piperidin-4-yl)methyl)-4-oxo-3,4-dihydropyrrolo[2,1-f][1,2,4]triazin-6-yl)-3-methylurea]",0.2 to 1
13,"Cc1ccc(C(=O)Nc2cc3c(=O)n(CC4(O)CCN(C(=O)C5CC5)CC4)cnn3c2)cc1Cl [Compound I-108, 3-chloro-N-(3-((1-(cyclopropanecarbonyl)-4-hydroxypiperidin-4-yl)methyl)-4-oxo-3,4-dihydropyrrolo[2,1-f][1,2,4]triazin-6-yl)-4-methylbenzamide]",> 10
14,"O=C(COc1ccc(OC(F)(F)F)cc1)Nc1cc2c(=O)n(CC3(O)CCN(C(=O)C4CC4)CC3)cnn2c1 [Compound I-104, N-(3-((1-(cyclopropanecarbonyl)-4-hydroxypiperidin-4-yl)methyl)-4-oxo-3,4-dihydropyrrolo[2,1-f][1,2,4]triazin-6-yl)-2-(4-(trifluoromethoxy)phenoxy)acetamide]",> 10
15,"Cc1c(F)cccc1NC(=O)Nc1cc2c(=O)n(CC3(O)CCN(C(=O)C4CC4)CC3)cnn2c1 [Compound I-97, 1-(3-((1-(cyclopropanecarbonyl)-4-hydroxypiperidin-4-yl)methyl)-4-oxo-3,4-dihydropyrrolo[2,1-f][1,2,4]triazin-6-yl)-3-(3-fluoro-2-methylphenyl)urea]",> 10
16,"CC(C)(C)C(Cc1ccccc1)C(=O)N1CCC(O)(Cn2cnn3cccc3c2=O)CC1 (stereo not shown) [Compound I-53, 3-((1-(2-benzyl-3,3-dimethylbutanoyl)-4-hydroxypiperidin-4-yl)methyl)pyrrolo[2,1-f][1,2,4]triazin-4(3H)-one]",1 to 10
17,"O=C(c1cccc(-c2ccsc2)c1)N1CCC(O)(Cn2cnn3cccc3c2=O)CC1 [Compound I-28, 3-((4-hydroxy-1-(3-(thiophen-3-yl)benzoyl)piperidin-4-yl)methyl)pyrrolo[2,1-f][1,2,4]triazin-4(3H)-one]",> 10
18,"CC(C)(c1ccccc1)c1ccc(C(=O)N2CCC(O)(Cn3cnn4cccc4c3=O)CC2)cc1 [Compound I-55, 3-((4-hydroxy-1-(4-(2-phenylpropan-2-yl)benzoyl)piperidin-4-yl)methyl)pyrrolo[2,1-f][1,2,4]triazin-4(3H)-one]",1 to 10
19,"Cc1cc(-c2cccc(C(=O)N3CCC(O)(Cn4cnn5cccc5c4=O)CC3)c2)ccc1F [Compound I-9, 3-((1-(4′-fluoro-3′-methyl-[1,1′-biphenyl]-3-carbonyl)-4-hydroxypiperidin-4-yl)methyl)pyrrolo[2,1-f][1,2,4]triazin-4(3H)-one]",> 10
20,"O=C(c1ccccc1-c1cccc(F)c1)N1CCC(O)(Cn2cnn3cccc3c2=O)CC1 [Compound I-4, 3-((1-(3′-fluoro-[1,1′-biphenyl]-2-carbonyl)-4-hydroxypiperidin-4-yl)methyl)pyrrolo[2,1-f][1,2,4]triazin-4(3H)-one]",> 10
21,"O=C(Cc1c(Cl)cccc1Cl)Nc1cc2c(=O)n(CC3(O)CCN(C(=O)C4CC4)CC3)cnn2c1 [Compound I-103, N-(3-((1-(cyclopropanecarbonyl)-4-hydroxypiperidin-4-yl)methyl)-4-oxo-3,4-dihydropyrrolo[2,1-f][1,2,4]triazin-6-yl)-2-(2,6-dichlorophenyl)acetamide]",> 10
22,"CCOc1cccc(-c2ccc(C(=O)N3CCC(O)(Cn4cnn5cccc5c4=O)CC3)cc2)c1 [Compound I-37, 3-((1-(3′-ethoxy-[1,1′-biphenyl]-4-carbonyl)-4-hydroxypiperidin-4-yl)methyl)pyrrolo[2,1-f][1,2,4]triazin-4(3H)-one]",> 10
23,"O=C(c1ccccc1)c1ccc(C(=O)N2CCC(O)(Cn3cnn4cccc4c3=O)CC2)cc1 [Compound I-71, 3-((1-(4-benzoylbenzoyl)-4-hydroxypiperidin-4-yl)methyl)pyrrolo[2,1-f][1,2,4]triazin-4(3H)-one]",1 to 10
24,"Cc1ccc(-c2cccc(C(=O)N3CCC(O)(Cn4cnn5cccc5c4=O)CC3)c2)cc1 [Compound I-7, 3-((4-hydroxy-1-(4′-methyl-[1,1′-biphenyl]-3-carbonyl)piperidin-4-yl)methyl)pyrrolo[2,1-f][1,2,4]triazin-4(3H)-one]",1 to 10
25,"C=C(C)C(=O)Nc1ccccc1-c1ccc(C(=O)N2CCC(O)(Cn3cnn4cccc4c3=O)CC2)cc1 [Compound I-114, N-(4′-(4-hydroxy-4-((4-oxopyrrolo[2,1-f][1,2,4]triazin-3(4H)-yl)methyl)piperidine-1-carbonyl)-[1,1′-biphenyl]-2-yl)methacrylamide]",1 to 10
26,"O=C(c1ccc(S(=O)(=O)c2ccccc2)cc1)N1CCC(O)(Cn2cnn3cccc3c2=O)CC1 [Compound I-61, 3-((4-hydroxy-1-(4-(phenylsulfonyl)benzoyl)piperidin-4-yl)methyl)pyrrolo[2,1-f][1,2,4]triazin-4(3H)-one]",1 to 10
27,"CC(C)(C#N)c1ccc(C(=O)N2CCC(O)(Cn3cnn4cccc4c3=O)CC2)cc1 [Compound I-31, 2-(4-(4-hydroxy-4-((4-oxopyrrolo[2,1-f][1,2,4]triazin-3(4H)-yl)methyl)piperidine-1-carbonyl)phenyl)-2-methylpropanenitrile]",> 10
28,"O=C(c1ccc(-c2ccc(C(=O)N3CCC(O)(Cn4cnn5cccc5c4=O)CC3)cc2)cc1)N1CCCCC1 [Compound I-52, 3-((4-hydroxy-1-(4′-(piperidine-1-carbonyl)-[1,1′-biphenyl]-4-carbonyl)piperidin-4-yl)methyl)pyrrolo[2,1-f][1,2,4]triazin-4(3H)-one]",> 10
